Calls of active or inactive are those of the source. The calls are words filed in the database; no cut-off is given here.
Legend:
[1] = Induction of gamma-globin gene expression in human erythrocytes at 1 uM after 3 days by RT-PCR analysis relative to control; type: functional, Erythrocyte; conditions: time 3 day
[2] = Induction of gamma-globin gene expression in human erythrocytes at 2 uM after 3 days by RT-PCR analysis relative to control; type: functional, Erythrocyte; conditions: time 3 day
[3] = Cytotoxicity against human erythrocytes assessed as cell viability at 2 uM after 3 days alamar blue assay relative to control; type: cell-based, Erythrocyte; conditions: time 3 day, read-out: Activity
Erythrocyte [4] = test: Induction of gamma-globin gene expression in human erythrocytes after 3 days by RT-PCR analysis; type: functional, cell-based; conditions: dose 0.06-2 µM, time 3.0 day
Erythrocyte [5] = test: Cytotoxicity against human erythrocytes assessed as cell viability at 4 uM after 3 days alamar blue assay; type: cell-based; conditions: 72 h, time 3 day
Erythrocyte [6] = test: Cytotoxicity against human erythrocytes assessed as cell viability at 1 uM after 3 days alamar blue assay; type: cell-based; conditions: 72 h, time 3 day
Erythrocyte [7] = test: Induction of gamma-globin gene expression in human erythrocytes at 0.5 to 1 uM after 3 days Western blot analysis; type: functional, cell-based; conditions: dose 0.5-1 µM, time 3.0 day
Erythrocyte [8] = test: Induction of gamma-globin gene expression in human erythrocytes at 0.5 uM after 3 days by RT-PCR analysis; type: functional, cell-based; conditions: time 3.0 day
Erythrocyte [9] = test: Induction of beta-globin gene expression in human erythrocytes at 0.5 uM after 3 days by RT-PCR analysis; type: functional, cell-based; conditions: time 3.0 day
[10] = Induction of gamma-globin gene expression in human HU-resistant primary erythrocytes at 0.5 uM after 3 days by RT-PCR analysis relative to control; type: functional, Erythrocyte; conditions: time 3 day
[11] = target: Histone deacetylase (Homo sapiens) (UniProt Q13547+O15379+Q9UBN7+Q92769+Q9UQL6+Q8WUI4+Q9BY41+Q96DB2+P56524+Q9UKV0+Q969S8); test: Inhibition of HDAC in human erythrocyte cells assessed as increase in acetylation of histone H4 at 0.5 to 1 uM after 3 days by Western blot analysis; type: cell-based; conditions: dose 0.5-1 µM, time 3.0 day
[12] = Induction of GATA1 gene expression in human erythrocyte at 0.5 uM after 3 days by RT-PCR analysis relative to control; type: functional; conditions: time 3 day
[13] = Induction of GATA1 gene expression in human erythrocyte at 1 uM after 3 days by RT-PCR analysis relative to control; type: functional; conditions: time 3 day
[14] = Induction of NFE2L2 gene expression in human erythrocyte at 0.5 uM after 3 days by RT-PCR analysis relative to control; type: functional; conditions: time 3 day
[15] = Induction of NFE2L2 gene expression in human erythrocyte at 1 uM after 3 days by RT-PCR analysis relative to control; type: functional; conditions: time 3 day
[16] = Downregulation of c-MYB gene expression in human erythrocyte at 0.5 uM after 3 days by RT-PCR analysis relative to control; type: functional; conditions: time 3 day
[17] = Downregulation of c-MYB gene expression in human erythrocyte at 1 uM after 3 days by RT-PCR analysis relative to control; type: functional; conditions: time 3 day
[18] = Induction of CPOX gene expression in human erythrocyte at 0.5 uM after 3 days by RT-PCR analysis relative to control; type: functional; conditions: time 3 day
[19] = Induction of CPOX gene expression in human erythrocyte at 1 uM after 3 days by RT-PCR analysis relative to control; type: functional; conditions: time 3 day
Erythrocyte [20] = test: Downregulation of […] expression in human erythrocyte at 1 uM after 3 days by Western blot analysis; type: functional, tissue-based; conditions: time 3.0 day
[21] = Half life in Sprague-Dawley rat at 5 mg/kg, iv measured upto 24 hrs by LC-MS/MS analysis; type: ADME, organism-based; conditions: in vivo
[22] = Clearance in Sprague-Dawley rat at 5 mg/kg, iv measured upto 24 hrs by LC-MS/MS analysis; type: ADME, organism-based; conditions: in vivo
[23] = Volume of distribution at steady state in Sprague-Dawley rat at 5 mg/kg, iv measured upto 24 hrs by LC-MS/MS analysis; type: ADME, organism-based; conditions: in vivo, read-out: Vdss
[24] = AUC (0 to infinity) in Sprague-Dawley rat at 5 mg/kg, iv measured upto 24 hrs by LC-MS/MS analysis; type: ADME, organism-based; set-up: route intravenous, dose 5 mg/kg, time <=24; conditions: in vivo
[25] = Half life in Sprague-Dawley rat at 20 mg/kg, po measured upto 24 hrs by LC-MS/MS analysis; type: ADME, organism-based; conditions: in vivo
[26] = Cmax in Sprague-Dawley rat at 20 mg/kg, po measured upto 24 hrs by LC-MS/MS analysis; type: ADME, organism-based; set-up: route oral, dose 20 mg/kg, time <=24; conditions: in vivo
[27] = AUC (0 to infinity) in Sprague-Dawley rat at 20 mg/kg, po measured upto 24 hrs by LC-MS/MS analysis; type: ADME, organism-based; set-up: route oral, dose 20 mg/kg, time <=24; conditions: in vivo
[28] = Oral bioavailability in Sprague-Dawley rat at 20 mg/kg measured upto 24 hrs by LC-MS/MS analysis; type: ADME, organism-based; conditions: in vivo
Mus musculus [29] = test: Antianemic effect in sickle cell disease mouse B6 model assessed as RBC level at 50 mg/kg, po twice daily, five days a week for 4 weeks (reference value: 7.23 +/- 0.75 M/uL); type: functional
Mus musculus [30] = test: Antianemic effect in sickle cell disease mouse B6 model assessed as hemoglobin level at 50 mg/kg, po twice daily, five days a week for 4 weeks (reference value: 7.46 +/- 0.7 g/dl); type: functional
Mus musculus [31] = test: Antianemic effect in sickle cell disease mouse B6 model assessed as reticulocytes level at 50 mg/kg, po twice daily, five days a week for 4 weeks (reference value: 57.34 +/- 3.67 %); type: functional
Mus musculus [32] = test: Antianemic effect in sickle cell disease mouse B6 model assessed as WBC level at 50 mg/kg, po twice daily, five days a week for 4 weeks (reference value: 34.15 +/- 5.85 K/uL); type: functional
Mus musculus [33] = test: Antianemic effect in sickle cell disease mouse B6 model assessed as neutrophils level at 50 mg/kg, po twice daily, five days a week for 4 weeks (reference value: 13.39 +/- 4.65 K/uL); type: functional
Mus musculus [34] = test: Antianemic effect in sickle cell disease mouse B6 model assessed as fetal hemoglobin level at 50 mg/kg, po twice daily, five days a week for 4 weeks (reference value: 0.2 +/- 0.02 %); type: functional
Mus musculus [35] = test: Antianemic effect in sickle cell disease mouse B6 model assessed as F-cell level at 50 mg/kg, po twice daily, five days a week for 4 weeks (reference value: 1.63 +/- 0.11 %); type: functional
Mus musculus [36] = test: Antianemic effect in sickle cell disease mouse B6 model assessed as sickle cell level at 50 mg/kg, po twice daily, five days a week for 4 weeks (reference value: 16.78 +/- 1.9 %); type: functional
Mus musculus [37] = test: Antianemic effect in sickle cell disease mouse B6 model assessed as RBC level at 100 mg/kg, po twice daily, five days a week for 4 weeks (reference value: 7.23 +/- 0.75 M/uL); type: functional
Mus musculus [38] = test: Antianemic effect in sickle cell disease mouse B6 model assessed as hemoglobin level at 100 mg/kg, po twice daily, five days a week for 4 weeks (reference value: 7.46 +/- 0.7 g/dl); type: functional
Mus musculus [39] = test: Antianemic effect in sickle cell disease mouse B6 model assessed as reticulocytes level at 100 mg/kg, po twice daily, five days a week for 4 weeks (reference value: 57.34 +/- 3.67 %); type: functional
Mus musculus [40] = test: Antianemic effect in sickle cell disease mouse B6 model assessed as WBC level at 100 mg/kg, po twice daily, five days a week for 4 weeks (reference value: 34.15 +/- 5.85 K/uL); type: functional
Mus musculus [41] = test: Antianemic effect in sickle cell disease mouse B6 model assessed as neutrophils level at 100 mg/kg, po twice daily, five days a week for 4 weeks (reference value: 13.39 +/- 4.65 K/uL); type: functional
Mus musculus [42] = test: Antianemic effect in sickle cell disease mouse B6 model assessed as fetal hemoglobin level at 100 mg/kg, po twice daily, five days a week for 4 weeks (reference value: 0.2 +/- 0.02 %); type: functional
Mus musculus [43] = test: Antianemic effect in sickle cell disease mouse B6 model assessed as F-cell level at 100 mg/kg, po twice daily, five days a week for 4 weeks (reference value: 1.63 +/- 0.11 %); type: functional
Mus musculus [44] = test: Antianemic effect in sickle cell disease mouse B6 model assessed as sickle cell level at 100 mg/kg, po twice daily, five days a week for 4 weeks (reference value: 16.78 +/- 1.9 %); type: functional
[45] = Water solubility of compound at pH 7.4 after 24 hrs by LC/MS analysis; type: physicochemical; conditions: buffer, pH 7.4, 24 h
[46] = Induction of gamma-globin gene expression in human erythrocytes at 100 uM after 3 days by RT-PCR analysis relative to control; type: functional, Erythrocyte; conditions: time 3 day
[47] = Cytotoxicity against human erythrocytes assessed as cell viability after 3 days alamar blue assay; type: cell-based, Erythrocyte; conditions: time 3 day
Erythrocyte [48] = test: Induction of gamma-globin gene expression in human erythrocytes at 147 uM after 3 days by RT-PCR analysis; type: functional, cell-based; conditions: time 3.0 day
Erythrocyte [49] = test: Induction of beta-globin gene expression in human erythrocytes at 147 uM after 3 days by RT-PCR analysis; type: functional, cell-based; conditions: time 3.0 day
Mus musculus [50] = test: Antianemic effect in sickle cell disease mouse B6 model assessed as RBC level at 100 mg/kg, ip once daily, five days a week for 4 weeks (reference value: 7.23 +/- 0.75 M/uL); type: functional
Mus musculus [51] = test: Antianemic effect in sickle cell disease mouse B6 model assessed as hemoglobin level at 100 mg/kg, ip once daily, five days a week for 4 weeks (reference value: 7.46 +/- 0.7 g/dl); type: functional
Mus musculus [52] = test: Antianemic effect in sickle cell disease mouse B6 model assessed as reticulocytes level at 100 mg/kg, ip once daily, five days a week for 4 weeks (reference value: 57.34 +/- 3.67 %); type: functional
Mus musculus [53] = test: Antianemic effect in sickle cell disease mouse B6 model assessed as WBC level at 100 mg/kg, ip once daily, five days a week for 4 weeks (reference value: 34.15 +/- 5.85 K/uL); type: functional
Mus musculus [54] = test: Antianemic effect in sickle cell disease mouse B6 model assessed as neutrophils level at 100 mg/kg, ip once daily, five days a week for 4 weeks (reference value: 13.39 +/- 4.65 K/uL); type: functional
Mus musculus [55] = test: Antianemic effect in sickle cell disease mouse B6 model assessed as fetal hemoglobin level at 100 mg/kg, ip once daily, five days a week for 4 weeks (reference value: 0.2 +/- 0.02 %); type: functional
Mus musculus [56] = test: Antianemic effect in sickle cell disease mouse B6 model assessed as F-cell level at 100 mg/kg, ip once daily, five days a week for 4 weeks (reference value: 1.63 +/- 0.11 %); type: functional
Mus musculus [57] = test: Antianemic effect in sickle cell disease mouse B6 model assessed as sickle cell level at 100 mg/kg, ip once daily, five days a week for 4 weeks (reference value: 16.78 +/- 1.9 %); type: functional

With CCN1CCN(c2nc(Nc3cccc(NC(=O)C#Cc4ccc(C)cc4)c3)c3ncn(CC)c3n2)CC1.Cl.Cl the “fold change (FC)” value [1] was 3.8, the “fold change (FC)” value [2] was 4.8 and the viability at 72 h, 2 µM [3] was 72%. For the same compound, the Activity (Erythrocyte [4]) was “Dose-dependent effect”, the Activity (Erythrocyte [5]) was “Toxic” and the Activity (Erythrocyte [6]) was “Non-Toxic”. The Activity (Erythrocyte [7]) was “Active”, the Activity (Erythrocyte [8]) was “Active” and the Activity (Erythrocyte [9]) was “inactive”. For the same compound, the “fold change (FC)” value [10] was 2, the inhibition [11] was “inactive” and the “fold change (FC)” value [12] was 1.6. For the same compound, the “fold change (FC)” value [13] was 2.3, the “fold change (FC)” value [14] was 1.7 and the “fold change (FC)” value [15] was 2.3. The “fold change (FC)” value [16] was 0.7, the “fold change (FC)” value [17] was 0.6 and the “fold change (FC)” value [18] was 1.8. The “fold change (FC)” value [19] was 2.2, the Activity (Erythrocyte [20]) was “Active” and the half-life [21] was 7.2 h. For the same compound, the clearance [22] was 8.2 mL/min/kg, the Vd [23] was 0.3 L/kg and the AUC(0-inf) [24] was 8860 ng·h/mL. The half-life [25] was 3.8 h, the Cmax [26] was 2730 ng/mL and the AUC(0-inf) [27] was 9000 ng·h/mL. For the same compound, the bioavailability [28] was 25%, the Activity (Mus musculus [29]) was 7.78 M/uL and the Activity (Mus musculus [30]) was 8.15 g/dL. It also gave an Activity (Mus musculus [31]) of 58.98%, an Activity (Mus musculus [32]) of 35.85 K/uL and an Activity (Mus musculus [33]) of 15.05 K/uL. For the same compound, the Activity (Mus musculus [34]) was 0.28%, the Activity (Mus musculus [35]) was 2.15% and the Activity (Mus musculus [36]) was 10%. It also gave an Activity (Mus musculus [37]) of 8.05 M/uL, an Activity (Mus musculus [38]) of 8.05 g/dL and an Activity (Mus musculus [39]) of 54.66%. It also gave an Activity (Mus musculus [40]) of 44.12 K/uL, an Activity (Mus musculus [41]) of 15.64 K/uL and an Activity (Mus musculus [42]) of 0.3%. For the same compound, the Activity (Mus musculus [43]) was 2.42%, the Activity (Mus musculus [44]) was 8.8% and the solubility [45] was 3.38 µg/mL.
With NC(=O)NO [HYDROXYUREA] the “fold change (FC)” value [46] was 2.5, the CC50 at 72 h [47] was 147 µM and the Activity (Erythrocyte [48]) was “Active”. For the same compound, the Activity (Erythrocyte [49]) was “Active”, the Activity (Mus musculus [50]) was 6.34 M/uL and the Activity (Mus musculus [51]) was 6.7 g/dL. The Activity (Mus musculus [52]) was 50.92%, the Activity (Mus musculus [53]) was 23.02 K/uL and the Activity (Mus musculus [54]) was 9.75 K/uL. For the same compound, the Activity (Mus musculus [55]) was 0.23%, the Activity (Mus musculus [56]) was 1.3% and the Activity (Mus musculus [57]) was 14.7%.

Reference: ChEMBL document CHEMBL4732077, “Potent and orally active purine-based fetal hemoglobin inducers for treating β-thalassemia and sickle cell disease” (Eur J Med Chem, 2021)
